Laboratory results reported in patent publication US4006231A, “N-aminosulfenylated derivatives of carbofuran” (priority 1974, dated 1977).
≈ marks a conversion by molar mass, not a printed value.

How the values were obtained:
adult female houseflies = assay: whole plant or invertebrate; conditions: Musca domestica, topical, 24 h, read-out: Houseflies LD50
Experimental: Toxicity of the compounds of the present invention to houseflies was tested using the technique described by March and Metcalf (Bull. Calif. State Dept. Agr. 38, No. 2, 93-101 [1949]): Solutions of test compounds in acetone were prepared at a range of concentrations. Adult female houseflies (Muscadomesticus) were treated with one drop of acetone solution, applied to the prothorax, using a syringe calibrated to deliver 1.00 ± 0.05 mm^3 drops. Twenty flies were treated at each dosage, each test compound was applied at 8 to 10 dosage levels. Each test was replicated three times. […] A one-inch square of cotton saturated with 40% sugar solution was provided for food in each carton. The cartons of flies were held in a constant temperature chamber at 60° F and 60% relative humidity for 24 hours before mortality counts were made. Flies totally unable to make crawling or walking movements were counted as dead. LD50 values were calculated in the conventional manner.

[1] = system: larvae of Culex fatigans (mosquitoes); assay: Toxicity to mosquitoes, fourth-instar larvae; conditions: Culex quinquefasciatus, 24 h, read-out: Mosquitoes LC50
Experimental: Toxicity of the compounds of the present invention to mosquitoes was tested using the technique described by Mulla, Metcalf and Geib (Mosquito News 28, No. 2, 236 [ 1966]): A 1% (w/v) stock solution was prepared by dissolving the test compound in acetone. The appropriate amount of stock solution was added with stirring to 100 ml of tap water and 20-25 fourth-instar larvae of Culex fatigans were placed in the solution. After 24 hours, the counts were taken. Larvae not able to rise to the surface on touch were counted as dead. Each concentration was run in duplicate and each material was run on two or three different days. The average percent mortality was plotted against the logarithm of the concentration (in ppm) and the LC50 value determined by inspection.

[2] = Acute oral toxicity to mice; conditions: mouse, in vivo
Experimental: Acute oral toxicity of the compounds of the present invention to mice was determined after the manner of Hollingworth, Fukuto and Metcalf (J. Agr. Food Chem. 15, 235 [ 1967]): Solutions of the compounds at each of a series of concentrations were prepared in olive oil or propylene glycol as solubility required. A dose of 0.25 ml of each solution was administered to each of four female white Swiss mice using the "bolus"-tipped syringe. […] Final mortality determinations were made 48 hours after treatment.

southern army worm [3] = assay: Systemic insecticidal activity, soil-watering technique, southern army worm; assay type: in vivo, Prodenia eridania; conditions: 156 ppm, 25 ml to soil, infested after 3 days, counted 2 days later
two-spotted spider mite [4] = assay: Systemic insecticidal activity, soil-watering technique, two-spotted spider mite; assay type: in vivo; conditions: Tetranychus urticae, 48 h, 25 ml to soil, infested after 3 days, counted 2 days later, read-out: % Kill, two-spotted spider mite, systemic
milkweed bug [5] = assay: Initial contact activity, milkweed bug; assay type: in vivo, Oncopeltus fascinatus; conditions: Oncopeltus fasciatus, 48 hours exposure, read-out: % Kill, milkweed bug, Initial
Experimental: (§1) Initial Contact Activity: One-half gram of test compound was dissolved in 40 ml of acetone and this solution was dispersed in 360 ml of water containing one drop of isooctylphenyl polyethoxyethanol. An aliquot of this solution was diluted with water to provide a solution containing 1250 ppm of active ingredient. […] At this time, the dead and living insects (or mites) were counted and the percent kill was calculated.

two-spotted spider mite [6] = assay: Initial contact activity, two-spotted spider mite; assay type: in vivo; conditions: Tetranychus urticae, 48 hours exposure, read-out: % Kill, two-spotted spider mite, Initial
Experimental: as §1

southern army worm [7] = assay: Initial contact activity, southern army worm; assay type: in vivo, Prodenia eridania; conditions: 1250 ppm, 48 hours exposure
Experimental: as §1

pea aphid [8] = assay: Initial contact activity, pea aphid; assay type: in vivo, Macrosiphum pisi; conditions: Acyrthosiphon pisum, 48 hours exposure, read-out: % Kill, pea aphid, Initial
Experimental: as §1

plum curculio [9] = assay: Residual contact activity (7-day), plum curculio; assay type: in vivo; conditions: Conotrachelus nenuphar, 48 h, surface aged seven days, read-out: % Kill, plum curculio, Residual (7-day)
Experimental: as §1
(§2) Residual Contact Activity: The residual contact activity of the compounds was determined on the same organisms using the technique described above, except that in each case the treated surface was allowed to dry and was exposed to normal light and air for seven days before introduction of the mites or insects. […]

confused flour beetle [10] = assay: Residual contact activity (7-day), confused flour beetle; assay type: in vivo; conditions: Tribolium confusum, 48 h, surface aged seven days, read-out: % Kill, confused flour beetle, Residual (7-day)
Experimental: as §1, §2

granary weevil [11] = assay: Initial contact activity, granary weevil; assay type: in vivo; conditions: Sitophilus granarius, 48 hours exposure, read-out: % Kill, granary weevil, Initial
Experimental: as §1

pea aphid [12] = assay: Residual contact activity (7-day), pea aphid; assay type: in vivo, Macrosiphum pisi; conditions: Acyrthosiphon pisum, 48 h, surface aged seven days, read-out: % Kill, pea aphid, Residual (7-day)
Experimental: as §1, §2

Mexican bean beetle [13] = assay: Residual contact activity (7-day), Mexican bean beetle; assay type: in vivo; conditions: Epilachna varivestis, 48 h, surface aged seven days, read-out: % Kill, Mexican bean beetle, Residual (7-day)
Experimental: as §1, §2

southern army worm [14] = assay: Residual contact activity (7-day), southern army worm; assay type: in vivo, Prodenia eridania; conditions: 1250 ppm, surface aged seven days; 2880 min
Experimental: as §1, §2

two-spotted spider mite [15] = assay: Residual contact activity (7-day), two-spotted spider mite; assay type: in vivo; conditions: Tetranychus urticae, 48 h, surface aged seven days, read-out: % Kill, two-spotted spider mite, Residual (7-day)
Experimental: as §1, §2

Mexican bean beetle [16] = assay: Initial contact activity, Mexican bean beetle; assay type: in vivo; conditions: Epilachna varivestis, 48 hours exposure, read-out: % Kill, Mexican bean beetle, Initial
Experimental: as §1

plum curculio [17] = assay: Initial contact activity, plum curculio; assay type: in vivo; conditions: Conotrachelus nenuphar, 48 hours exposure, read-out: % Kill, plum curculio, Initial
Experimental: as §1

granary weevil [18] = assay: Residual contact activity (7-day), granary weevil; assay type: in vivo; conditions: Sitophilus granarius, 48 h, surface aged seven days, read-out: % Kill, granary weevil, Residual (7-day)
Experimental: as §1, §2

pea aphid [19] = assay: Systemic insecticidal activity, soil-watering technique, pea aphid; assay type: in vivo, Macrosiphum pisi; conditions: Acyrthosiphon pisum, 48 h, 25 ml to soil, infested after 3 days, counted 2 days later, read-out: % Kill, pea aphid, systemic
milkweed bug [20] = assay: Residual contact activity (7-day), milkweed bug; assay type: in vivo, Oncopeltus fascinatus; conditions: Oncopeltus fasciatus, 48 h, surface aged seven days, read-out: % Kill, milkweed bug, Residual (7-day)
Experimental: as §1, §2

confused flour beetle [21] = assay: Initial contact activity, confused flour beetle; assay type: in vivo; conditions: Tribolium confusum, 48 hours exposure, read-out: % Kill, confused flour beetle, Initial
Experimental: as §1

Mexican bean beetle [22] = assay: Systemic insecticidal activity, soil-watering technique, Mexican bean beetle; assay type: in vivo; conditions: Epilachna varivestis, 48 h, 25 ml to soil, infested after 3 days, counted 2 days later, read-out: % Kill, Mexican bean beetle, systemic

Structure (SMILES): CNC(=O)Oc1cccc2c1OC(C)(C)C2 [Carbofuran, 2,3-dihydro-2,2-dimethyl-7-benzofuranyl methylcarbamate]
- LD50 (adult female houseflies): ~6.7 mg/kg
- LC50 [1]: 0.052 µg/mL (≈ 0.235 µM)
- LD50 at 48 h [2]: ~2 mg/kg

Structure (SMILES): CN(C)SN(C)C(=O)Oc1cccc2c1OC(C)(C)C2 [I, 2,3-Dihydro-2,2-dimethyl-7-benzofuranyl (Dimethylaminosulfenyl) (methyl)carbamate]
- % Kill, southern army worm, systemic (southern army worm [3]): 100%
- mortality at 156 ppm (two-spotted spider mite [4]): 73%
- LD50 (adult female houseflies): ~15 mg/kg
- mortality at 1250 ppm (milkweed bug [5]): 100%
- mortality at 1250 ppm (two-spotted spider mite [6]): 100%
- % Kill, southern army worm, Initial (southern army worm [7]): 100%
- LC50 [1]: 0.027 µg/mL (≈ 0.0911 µM)
- mortality at 1250 ppm (pea aphid [8]): 100%
- mortality at 1250 ppm (plum curculio [9]): 5%
- mortality at 1250 ppm (confused flour beetle [10]): 0%
- LD50 at 48 h [2]: 10 to 20 mg/kg
- mortality at 1250 ppm (granary weevil [11]): 100%
- mortality at 1250 ppm (pea aphid [12]): 95%
- mortality at 1250 ppm (Mexican bean beetle [13]): 95%
- % Kill, southern army worm, Residual (7-day) (southern army worm [14]): 80%
- mortality at 1250 ppm (two-spotted spider mite [15]): 3%
- mortality at 1250 ppm (Mexican bean beetle [16]): 100%
- mortality at 1250 ppm (plum curculio [17]): 100%
- mortality at 1250 ppm (granary weevil [18]): 63%
- mortality at 156 ppm (pea aphid [19]): 100%
- mortality at 1250 ppm (milkweed bug [20]): 100%
- mortality at 1250 ppm (confused flour beetle [21]): 100%
- mortality at 156 ppm (Mexican bean beetle [22]): 100%

Structure (SMILES): CN(SN1CCOCC1)C(=O)Oc1cccc2c1OC(C)(C)C2 [II, 2,3-Dihydro-2,2-dimethyl-7-benzofuranyl (Methyl)(morpholinosulfenyl)carbamate]
- % Kill, southern army worm, systemic (southern army worm [3]): 100%
- mortality at 156 ppm (two-spotted spider mite [4]): 76%
- LD50 (adult female houseflies): ~10.5 mg/kg
- mortality at 1250 ppm (milkweed bug [5]): 100%
- mortality at 1250 ppm (two-spotted spider mite [6]): 97%
- % Kill, southern army worm, Initial (southern army worm [7]): 100%
- LC50 [1]: 0.048 µg/mL (≈ 0.142 µM)
- mortality at 1250 ppm (pea aphid [8]): 100%
- mortality at 1250 ppm (plum curculio [9]): 100%
- mortality at 1250 ppm (confused flour beetle [10]): 0%
- LD50 at 48 h [2]: 10 to 20 mg/kg
- mortality at 1250 ppm (granary weevil [11]): 100%
- mortality at 1250 ppm (pea aphid [12]): 100%
- mortality at 1250 ppm (Mexican bean beetle [13]): 100%
- % Kill, southern army worm, Residual (7-day) (southern army worm [14]): 83%
- mortality at 1250 ppm (two-spotted spider mite [15]): 4%
- mortality at 1250 ppm (Mexican bean beetle [16]): 100%
- mortality at 1250 ppm (plum curculio [17]): 100%
- mortality at 1250 ppm (granary weevil [18]): 100%
- mortality at 156 ppm (pea aphid [19]): 100%
- mortality at 1250 ppm (milkweed bug [20]): 100%
- mortality at 1250 ppm (confused flour beetle [21]): 100%
- mortality at 156 ppm (Mexican bean beetle [22]): 100%
